Results: ChEMBL document CHEMBL1144521, “Design, synthesis and biological activity of selective and orally available TF/FVIIa complex inhibitors containing non-amidine P1 ligands” (Bioorg Med Chem, 2007)
Blank lines part the entries; values can stand above or below the compound they belong to.

How the values were obtained:
Prothrombin = Prothrombin (Homo sapiens, UniProt P00734); assay: Inhibition of human thrombin by chromogenic assay
Coagulation factor X = Coagulation factor X (Homo sapiens, UniProt P00742); assay: Inhibition of human Fxa by chromogenic assay
Plasma [1] = assay: Anticoagulant potency in human citreated plasma assessed as concentration required to double activated partial thromboplastin time; format: functional
[2] = Plasma concentration in ICR mouse at 300 mg/kg, po after 0.5 hrs by TF/FVIIa inhibition assay; format: ADME, organism-based; design: dose 300 mg/kg, route oral
Plasma [3] = assay: Anticoagulant potency in human citreated plasma assessed as concentration required to double prothrombin time; format: functional
[4] = Plasma concentration in ICR mouse at 300 mg/kg, po after 2 hrs by TF/FVIIa inhibition assay; format: ADME, organism-based; design: dose 300 mg/kg, route oral
Trypsin = Trypsin (Homo sapiens, UniProt P07477+P07478+P35030); assay: Inhibition of human trypsin by chromogenic assay; format: protein assay
Coagulation factor VII = molecular target: T1, Coagulation factor VII (Homo sapiens, UniProt P08709); assay: Inhibition of human TF/FVIIa complex by chromogenic assay
T1 sequence (P08709 whole entry): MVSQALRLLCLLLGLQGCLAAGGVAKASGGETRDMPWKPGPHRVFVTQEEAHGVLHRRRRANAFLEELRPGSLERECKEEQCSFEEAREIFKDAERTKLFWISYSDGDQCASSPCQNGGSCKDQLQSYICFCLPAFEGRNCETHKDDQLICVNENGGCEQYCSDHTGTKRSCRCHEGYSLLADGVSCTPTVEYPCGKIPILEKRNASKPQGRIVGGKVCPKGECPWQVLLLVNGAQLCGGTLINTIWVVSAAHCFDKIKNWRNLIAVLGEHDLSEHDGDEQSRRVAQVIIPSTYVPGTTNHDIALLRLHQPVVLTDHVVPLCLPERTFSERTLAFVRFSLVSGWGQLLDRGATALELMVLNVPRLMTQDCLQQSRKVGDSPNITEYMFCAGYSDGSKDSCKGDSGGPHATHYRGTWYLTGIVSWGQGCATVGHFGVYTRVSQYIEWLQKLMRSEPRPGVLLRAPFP

[5] = Plasma concentration in ICR mouse at 100 mg/kg, po after 2 hrs by TF/FVIIa inhibition assay; format: ADME, organism-based; design: dose 100 mg/kg, route oral
[6] = Plasma concentration in ICR mouse at 100 mg/kg, po after 0.5 hrs by TF/FVIIa inhibition assay; format: ADME, organism-based; design: dose 100 mg/kg, route oral
Cynomolgus monkey [7] = assay: Prolongation of prothrombin time in cynomolgus monkey citreated blood at 30 mg/kg, iv; format: functional, Macaca fascicularis
Cynomolgus monkey [8] = assay: Effect on bleeding time in cynomolgus monkey at 10 mg/kg, iv; format: functional, Macaca fascicularis
Cynomolgus monkey [9] = assay: Effect on bleeding time in cynomolgus monkey at 3 mg/kg, iv; format: functional, Macaca fascicularis
Cynomolgus monkey [10] = assay: Effect on bleeding time in cynomolgus monkey at 30 mg/kg, iv; format: functional, Macaca fascicularis
Cynomolgus monkey [11] = assay: Effect on activated partial thromboplastin time in cynomolgus monkey citreated blood at 10 mg/kg, iv; format: functional, Macaca fascicularis
[12] = Plasma concentration in ICR mouse at 100 mg/kg, po after 4 hrs by TF/FVIIa inhibition assay; format: ADME, organism-based; design: dose 100 mg/kg, route oral
Cynomolgus monkey [13] = assay: Prolongation of prothrombin time in cynomolgus monkey citreated blood at 10 mg/kg, iv; format: functional, Macaca fascicularis
Cynomolgus monkey [14] = assay: Prolongation of prothrombin time in cynomolgus monkey citreated blood at 3 mg/kg, iv; format: functional, Macaca fascicularis
Cynomolgus monkey [15] = assay: Effect on activated partial thromboplastin time in cynomolgus monkey citreated blood at 3 mg/kg, iv; format: functional, Macaca fascicularis
Cynomolgus monkey [16] = assay: Effect on activated partial thromboplastin time in cynomolgus monkey citreated blood at 30 mg/kg, iv; format: functional, Macaca fascicularis

Coagulation factor X, sequence (P00742 41-179 limits assumed): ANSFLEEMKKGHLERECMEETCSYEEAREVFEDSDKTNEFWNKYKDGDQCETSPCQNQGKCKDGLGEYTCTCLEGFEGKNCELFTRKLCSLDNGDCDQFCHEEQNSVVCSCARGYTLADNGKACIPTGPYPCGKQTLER
Coagulation factor X, sequence (P00742 235-488 limits assumed): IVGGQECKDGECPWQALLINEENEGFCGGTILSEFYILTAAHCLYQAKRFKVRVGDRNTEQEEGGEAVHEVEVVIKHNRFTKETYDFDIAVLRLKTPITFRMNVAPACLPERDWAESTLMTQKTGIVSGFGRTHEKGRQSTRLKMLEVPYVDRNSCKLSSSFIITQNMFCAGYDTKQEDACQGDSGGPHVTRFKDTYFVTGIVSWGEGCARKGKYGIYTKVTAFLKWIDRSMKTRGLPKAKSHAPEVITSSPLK

SMILES: CC(C)CNC(=O)c1ccc(-c2ccccc2C(=O)Nc2ccc(C(=N)N)cc2)c(C(=O)O)c1
IC50 (Prothrombin): > 200 µM
IC50 (Coagulation factor X): 0.88 µM
Activity (Plasma [1]): 4.3 µM
concentration at 0.5 h [2]: 300 ng/mL
Activity (Plasma [3]): 4.2 µM
concentration at 2 h [4]: 160 ng/mL
IC50 (Trypsin): 4.8 µM
IC50 (Coagulation factor VII): 0.089 µM

SMILES: CC(C)C[C@H](NC(=O)c1ccc(-c2ccccc2C(=O)Nc2cccc(C(N)=O)c2)c(C(=O)O)c1)C(=O)O
IC50 (Coagulation factor VII): 2.4 µM

SMILES: CC(C)C[C@H](CO)NC(=O)c1ccc(-c2ccccc2C(=O)Nc2cccc(C(N)=O)c2)c(C(=O)O)c1
IC50 (Coagulation factor VII): 191 µM

SMILES: CC(C)CCNC(=O)c1ccc(-c2ccccc2C(=O)Nc2cccc(C(N)=O)c2)c(C(=O)O)c1
IC50 (Coagulation factor VII): 19 µM

SMILES: CC(C)C[C@@H](CO)NC(=O)c1ccc(-c2ccccc2C(=O)Nc2cccc(C(N)=O)c2)c(C(=O)O)c1
IC50 (Coagulation factor VII): 8.5 µM

SMILES: CNc1ccc(-c2ccc(C(=O)N[C@H](CO)CC(C)C)cc2C(=O)O)c(C(=O)Nc2ccc(CN)cc2)c1
IC50 (Coagulation factor VII): 1.3 µM

SMILES: CC(C)C[C@H](NC(=O)c1ccc(-c2ccccc2C(=O)Nc2cccc(C(N)=O)c2)c(C(=O)O)c1)C(=O)N(C)C
IC50 (Coagulation factor VII): 3.2 µM

SMILES: CC(C)CNC(=O)c1ccc(-c2ccccc2C(=O)Nc2cccc(C(N)=O)c2)c(C(=O)O)c1
IC50 (Coagulation factor VII): 19 µM

SMILES: CNc1ccc(-c2ccc(C(=O)N[C@@H](CC(C)C)C(N)=O)cc2C(=O)O)c(C(=O)Nc2ccc(CN)cc2)c1
IC50 (Prothrombin): > 200 µM
PT (Cynomolgus monkey [7]): 38.4 s
Activity (Cynomolgus monkey [8]): 2.7 min
Activity (Cynomolgus monkey [9]): 3.5 min
IC50 (Coagulation factor X): > 200 µM
Activity (Cynomolgus monkey [10]): 3.7 min
APTT (Cynomolgus monkey [11]): 32.2 s
Activity (Plasma [1]): >300 µM
concentration at 4 h [12]: 130 ng/mL
concentration at 0.5 h [2]: 1800 ng/mL
Activity (Plasma [3]): 47 µM
IC50 (Trypsin): > 200 µM
IC50 (Coagulation factor VII): 0.59 µM
PT (Cynomolgus monkey [13]): 24.5 s
PT (Cynomolgus monkey [14]): 15.1 s
APTT (Cynomolgus monkey [15]): 29.1 s
APTT (Cynomolgus monkey [16]): 35 s

Second part, led by results:

IC50 (Coagulation factor VII): 4.2 µM
SMILES: CC(C)C[C@H](NC(=O)c1ccc(-c2ccccc2C(=O)Nc2cccc(C(N)=O)c2)c(C(=O)O)c1)C(N)=O

IC50 (Coagulation factor VII): 0.3 µM
SMILES: CNc1ccc(-c2ccc(C(=O)N[C@H](CO)CC(C)C)cc2C(=O)O)c(C(=O)Nc2cccc(C(N)=O)c2)c1

IC50 (Coagulation factor VII): 0.3 µM
SMILES: CCNc1ccc(-c2ccc(C(=O)N[C@@H](CC(C)C)C(N)=O)cc2C(=O)O)c(C(=O)Nc2cccc(C(N)=O)c2)c1

IC50 (Prothrombin): > 200 µM
IC50 (Coagulation factor X): > 200 µM
IC50 (Trypsin): 4.8 µM
IC50 (Coagulation factor VII): 0.69 µM
SMILES: CNc1ccc(-c2ccc(C(=O)NCC(C)C)cc2C(=O)O)c(C(=O)Nc2cccc(C(N)=O)c2)c1
Activity (Plasma [1]): >300 µM
Activity (Plasma [3]): 150 µM

IC50 (Coagulation factor VII): 0.86 µM
SMILES: CC(C)C[C@H](NC(=O)c1ccc(-c2ccc(NC(C)C)cc2C(=O)Nc2cccc(C(N)=O)c2)c(C(=O)O)c1)C(N)=O

IC50 (Coagulation factor VII): 91 µM
SMILES: CC(C)C[C@H](NC(=O)c1ccc(-c2ccc(NC3CCCCC3)cc2C(=O)Nc2cccc(C(N)=O)c2)c(C(=O)O)c1)C(N)=O

IC50 (Prothrombin): > 200 µM
IC50 (Coagulation factor X): > 200 µM
IC50 (Trypsin): > 200 µM
IC50 (Coagulation factor VII): 0.15 µM
SMILES: CNc1ccc(-c2ccc(C(=O)N[C@@H](CC(C)C)C(=O)O)cc2C(=O)O)c(C(=O)Nc2cccc(C(N)=O)c2)c1
Activity (Plasma [1]): >300 µM
Activity (Plasma [3]): 33 µM

IC50 (Prothrombin): > 200 µM
IC50 (Coagulation factor X): > 200 µM
concentration at 2 h [5]: 210 ng/mL
IC50 (Trypsin): > 200 µM
IC50 (Coagulation factor VII): 0.18 µM
concentration at 0.5 h [6]: 280 ng/mL
SMILES: CNc1ccc(-c2ccc(C(=O)N[C@@H](CC(C)C)C(N)=O)cc2C(=O)O)c(C(=O)Nc2cccc(C(N)=O)c2)c1
Activity (Plasma [1]): >300 µM
Activity (Plasma [3]): 20 µM

IC50 (Coagulation factor VII): 4.2 µM
SMILES: CNC(=O)[C@H](CC(C)C)NC(=O)c1ccc(-c2ccccc2C(=O)Nc2cccc(C(N)=O)c2)c(C(=O)O)c1

IC50 (Coagulation factor VII): 2.2 µM
SMILES: CCCCNc1ccc(-c2ccc(C(=O)N[C@@H](CC(C)C)C(N)=O)cc2C(=O)O)c(C(=O)Nc2cccc(C(N)=O)c2)c1
